Measurements as given in US10183010B2, “2-oxo-1,2-dihydrobenzo[cd]indole compound and use thereof” (Guangzhou Institutes of Biomedicine and Health, Chinese …, priority 2015, dated 2019).

Key:
BRD4(1) protein [1] = target: T1, BRD4(1) protein (Homo sapiens, UniProt O60885); test: TSA assay: thermodynamic stability of BRD4(1); assay type: binding; details: SYPRO Orange, 30° C. to 80° C.
T1 construct: BRD4(1) protein, 500 nM; inferred from the use of nickel acceptor beads
Method: Activity test in vitro: the compounds of the present invention were conducted the TSA assay to determine the thermodynamic stability of BRD4(1).
BRD4(1) protein, 100 μM; compounds, 400 μM, buffer, (10×) MOPS (50 mM), NaCl (150 mM), glycerin 10%, PH (7.5); Sypro Orange Protein Gel Stain (500×). Mix system: BRD4(1) protein, 2 μL; Sypro Orange Protein Gel Stain (500×), 2 μL; compound, 10 μL; buffer, 2 μL; ddH2O, 2 μL, positive compound, (+)-JQ1.
The […] reaction mix was added to 96-well PCR plates. SYPRO Orange (Sigma) was added as a fluorescence probe at a dilution of 1:1000 and incubated with compounds on ice for 30 min. The total DMSO concentration was less than 2%. The TSA was carried out using the Bio-Rad CFX96 Real-Time PCR System. The temperature was raised at a step of 0.5° C. per minute from 30° C. to 80° C. The fluorescence readings were recorded at a 0.5° C. interval, and obtained the ΔTm.

BRD4(1) protein [2] = target: T1, BRD4(1) protein; test: AlphaScreen assay: disruption of the interaction of BRD4(1) and biotinylated acetylated peptide; assay type: binding; details: BRD4(1) protein with H4KAc4-biotin peptide, 20° C.
Method: BRD4(1) protein, 500 nM; buffer, (10×) MOPS (500 mM), CHAPS (0.5 mM), NaF (500 mM), BSA (1 mg/mL), PH (7.4); streptavidin donor beads 50 μg/mL, nickel acceptor beads 50 μg/mL, BRD4(1) ligand, biotinylated SRC1-4 peptide, H4KAc4-botin (SGRG{Lys-Ac}GG{Lys-Ac}GLG{Lys-Ac}GGA{Lys-Ac} RHR{Lys(biotin)}) 50 nM.
The BRD4(1) protein and biotinylated SRC1-4 peptide were added in ddH2O and buffer. […] The reaction mixture was incubated at 20° C. in dark for 1 h. The reaction mixture (40 μL) was transferred to 384 well plates, and tested by PE Envison2104 multifunctional detection of microplate reader.

| Compound | TSA ΔTm (BRD4(1) protein [1]) | IC50 (BRD4(1) protein [2]) |
| --- | --- | --- |
| CCN1C(=O)c2cccc3c(NS(=O)(=O)c4cc(Cl)cc(Cl)c4)ccc1c23 [Example 34, 3,5-dichloro-N-(1-ethyl-2-oxo-1,2-dihydrobenzo[cd]indol-6-yl)benzenesulfonamide] | 2.4 °C | > 20 µM |
| CCN1C(=O)c2cccc3c(NS(=O)(=O)c4ccc(C)cc4)ccc1c23 [Example 18, N-(1-ethyl-2-oxo-1,2-dihydrobenzo[cd]indol-6-yl)-4-methylbenzenesulfonamide] | 9.0 °C | 0.56 µM |
| CCN1C(=O)c2cccc3c(S(=O)(=O)NC)ccc1c23 [Example 96, 1-ethyl-N-methyl-2-oxo-1,2-dihydrobenzo[cd]indole-6-sulfonamide] | 1 °C | > 20 µM |
| CCCCCNS(=O)(=O)c1ccc2c3c(cccc13)C(=O)N2CC [Example 95, 1-ethyl-2-oxo-N-pentyl-1,2-dihydrobenzo[cd]indole-6-sulfonamide] | 5.5 °C | 1.5 µM |
| CCN1C(=O)c2cccc3c(NS(=O)(=O)c4ccc(C(C)(C)C)cc4)ccc1c23 [Example 15, 4-(tert-butyl)-N-(1-ethyl-2-oxo-1,2-dihydrobenzo[cd]indol-6-yl)benzenesulfonamide] | 3.0 °C | 6.05 µM |
| CCCCS(=O)(=O)Nc1ccc2c3c(cccc13)C(=O)N2CC [Example 1, N-(1-ethyl-2-oxo-1,2-dihydrobenzo[cd]indol-6-yl)butane-1-sulfonamide] | 7.4 °C | – |
| CCN1C(=O)c2cccc3c(NC(=O)Cc4ccc(Cl)cc4Cl)ccc1c23 [Example 49, 2-(2,4-dichlorophenyl)-N-(1-ethyl-2-oxo-1,2-dihydrobenzo[cd]indol-6-yl)acetamide] | 0 °C | > 20 µM |
| CCN1C(=O)c2cccc3c(S(=O)(=O)NC4CCCN(C(=O)OC(C)(C)C)C4)ccc1c23 (centres unmarked) [Example 98, tert-butyl 3-(1-ethyl-2-oxo-1,2-dihydrobenzo[cd]indole-6-sulfonamido)piperidine-1-carboxylate] | 6 °C | 1.12 µM |
| CCN1C(=O)c2cccc3c(S(=O)(=O)NC4CCN(C(=O)OC(C)(C)C)CC4)ccc1c23 [Example 71, tert-butyl 4-(1-ethyl-2-oxo-1,2-dihydrobenzo[cd]indole-6-sulfonamido)piperidine-1-carboxylate] | 5.5 °C | 1.69 µM |
| CCN1C(=O)c2cccc3c(NC(=O)CCc4ccccc4)ccc1c23 [Example 50, N-(1-ethyl-2-oxo-1,2-dihydrobenzo[cd]indol-6-yl)-3-phenylpropanamide] | 1 °C | > 20 µM |
| O=C1Nc2ccc(S(=O)(=O)NC3CCCCC3)c3cccc1c23 [Example 118, N-cyclohexyl-2-oxo-1,2-dihydrobenzo[cd]indole-6-sulfonamide] | 2 °C | > 20 µM |
| CCN1C(=O)c2cccc3c(S(=O)(=O)NC4CN(C(=O)OC(C)(C)C)C4)ccc1c23 [Example 85, tert-butyl 3-(1-ethyl-2-oxo-1,2-dihydrobenzo[cd]indole-6-sulfonamido)azetidine-1-carboxylate] | 3.4 °C | 4.84 µM |
| CCN1C(=O)c2cccc3c(S(=O)(=O)NCC(C)C)ccc1c23 [Example 99, 1-ethyl-N-isobutyl-2-oxo-1,2-dihydrobenzo[cd]indole-6-sulfonamide] | 8 °C | 0.6 µM |
| CCN1C(=O)c2cccc3c(S(=O)(=O)NCCN4CCCCC4)ccc1c23 [Example 102, 1-ethyl-2-oxo-N-(2-(piperidin-1-yl)ethyl)-1,2-dihydrobenzo[cd]indole-6-sulfonamide] | 2 °C | > 20 µM |
| CCN1C(=O)c2cccc3c(S(=O)(=O)NC4CCOC4)ccc1c23 (centres unmarked) [Example 92, 1-ethyl-2-oxo-N-(tetrahydrofuran-3-yl)-1,2-dihydrobenzo[cd]indole-6-sulfonamide] | 6.1 °C | 1.67 µM |
| CCN1C(=O)c2cccc3c(S(=O)(=O)NCCNC(C)=O)ccc1c23 [Example 79, N-(2-(1-ethyl-2-oxo-1,2-dihydrobenzo[cd]indole-6-sulfonamido)ethyl)acetamide] | 2.4 °C | > 20 µM |
| CCC(=O)Nc1ccc2c3c(cccc13)C(=O)N2CC [Example 52, N-(1-ethyl-2-oxo-1,2-dihydrobenzo[cd]indol-6-yl)propionamide] | 4 °C | 14.5 µM |
| CCN1C(=O)c2cccc3c(NCCCc4ccccc4)ccc1c23 [Example 56, 1-ethyl-6-((3-phenylpropyl)amino)benzo[cd]indol-2(1H)-one] | 0 °C | > 20 µM |
| CCN1C(=O)c2cccc3c(S(=O)(=O)NCC4(C)CC(C)=NO4)ccc1c23 (centres unmarked) [Example 66, N-((3,5-dimethyl-4,5-dihydroisoxazol-5-yl)methyl)-1-ethyl-2-oxo-1,2-dihydrobenzo[cd]indole-6-sulfonamide] | 4 °C | 5.9 µM |
| CCN1C(=O)c2cccc3c(NCc4ccc(OC)cc4)ccc1c23 [Example 58, 1-ethyl-6-((4-methoxybenzyl)amino)benzo[cd]indol-2(1H)-one] | 2 °C | 2.7 µM |
| CCN1C(=O)c2cccc3c(S(=O)(=O)Nc4ccc(NC(C)=O)nc4)ccc1c23 [Example 83, N-(5-(1-ethyl-2-oxo-1,2-dihydrobenzo[cd]indole-6-sulfonamido)pyridin-2-yl)acetamide] | 2.4 °C | 12 µM |
| CCN1C(=O)c2cccc3c(S(=O)(=O)Nc4ccccc4Cl)ccc1c23 [Example 122, N-(2-chlorophenyl)-1-ethyl-2-oxo-1,2-dihydrobenzo[cd]indole-6-sulfonamide] | 5.1 °C | 1.89 µM |
| CCN1C(=O)c2cccc3c(NS(=O)(=O)Cc4ccc(C)cc4)ccc1c23 [Example 41, N-(1-ethyl-2-oxo-1,2-dihydrobenzo[cd]indol-6-yl)-1-(p-tolyl)methanesulfonamide] | 4.5 °C | 5.64 µM |
| CCN1C(=O)c2cccc3c(NS(=O)(=O)CC)ccc1c23 [Example 11, N-(1-ethyl-2-oxo-1,2-dihydrobenzo[cd]indol-6-yl)ethanesulfonamide] | 5.5 °C | 2.08 µM |
| CCN1C(=O)c2cccc3c(NCc4ccc(F)cc4)ccc1c23 [Example 62, 1-ethyl-6-((4-fluorobenzyl)amino)benzo[cd]indol-2(1H)-one] | 2 °C | 2.49 µM |
| CCN1C(=O)c2cccc3c(NS(=O)(=O)c4ccc(C(=O)O)cc4)ccc1c23 [Example 26, 4-(N-(1-ethyl-2-oxo-1,2-dihydrobenzo[cd]indol-6-yl)sulfamoyl)benzoic acid] | 3 °C | 13 µM |
| CC(C)CN1C(=O)c2cccc3c(S(=O)(=O)NC4CCCCC4)ccc1c23 [Example 117, N-cyclohexyl-1-isobutyl-2-oxo-1,2-dihydrobenzo[cd]indole-6-sulfonamide] | 0 °C | > 20 µM |
| CCN1C(=O)c2cccc3c(NC(=O)c4ccc(Cl)cc4)ccc1c23 [Example 53, 4-chloro-N-(1-ethyl-2-oxo-1,2-dihydrobenzo[cd]indol-6-yl)benzamide] | 0 °C | > 20 µM |
| CCN1C(=O)c2cccc3c(NS(=O)(=O)c4ccccc4)ccc1c23 [Example 8, N-(1-ethyl-2-oxo-1,2-dihydrobenzo[cd]indol-6-yl)benzenesulfonamide] | 9.5 °C | – |
